Experimental data as given in article PMC6277434, “Discovery of a potent HMG-CoA reductase degrader that eliminates statin-induced reductase accumulation and lowers cholesterol” (Nature Communications, 2018).

Target: T1, HMGCR (Cricetulus griseus, UniProt P00347)
T1 construct: endogenous in cells; host or cells: CHO-7, CHG, SRD-13A, SRD-15
T1 sequence (P00347 1-887): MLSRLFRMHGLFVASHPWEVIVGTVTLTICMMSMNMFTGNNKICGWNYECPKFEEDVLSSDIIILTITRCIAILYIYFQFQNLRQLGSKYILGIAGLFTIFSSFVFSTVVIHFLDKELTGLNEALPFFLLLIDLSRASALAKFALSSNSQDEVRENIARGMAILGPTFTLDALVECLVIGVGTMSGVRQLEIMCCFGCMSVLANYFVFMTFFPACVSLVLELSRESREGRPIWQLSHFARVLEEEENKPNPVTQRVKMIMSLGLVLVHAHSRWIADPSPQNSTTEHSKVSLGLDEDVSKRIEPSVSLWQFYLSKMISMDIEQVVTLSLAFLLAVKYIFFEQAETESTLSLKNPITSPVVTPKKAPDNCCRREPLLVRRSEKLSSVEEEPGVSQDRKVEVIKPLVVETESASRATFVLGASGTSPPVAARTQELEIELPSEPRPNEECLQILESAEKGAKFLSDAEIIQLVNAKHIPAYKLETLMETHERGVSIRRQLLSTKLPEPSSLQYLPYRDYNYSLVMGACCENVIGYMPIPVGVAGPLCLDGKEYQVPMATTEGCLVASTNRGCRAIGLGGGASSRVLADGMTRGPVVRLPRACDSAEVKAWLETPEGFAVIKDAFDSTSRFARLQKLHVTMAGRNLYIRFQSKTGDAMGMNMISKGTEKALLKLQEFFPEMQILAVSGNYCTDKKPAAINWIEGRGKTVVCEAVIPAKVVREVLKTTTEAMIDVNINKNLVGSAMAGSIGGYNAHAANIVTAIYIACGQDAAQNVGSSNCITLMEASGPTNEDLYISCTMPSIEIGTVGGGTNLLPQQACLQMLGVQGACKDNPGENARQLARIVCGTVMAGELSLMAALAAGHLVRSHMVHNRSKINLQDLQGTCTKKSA
Test: Immunoblotting of endogenous HMGCR protein in CHO-7 (or CHG) cells
Format: cell-based, Chinese hamster
Conditions: for endogenous HMGCR protein (immunoblot), mean: DMSO = 100; for HMGCR protein fold change: untreated = 1
Method: CHO-7 (Chinese hamster ovary cell, a clone of CHO-K1 cell line selected for growth in LPDS) and Huh7 (a human hepatocellular carcinoma cell line), SRD-13A (a Scap-deficient CHO-7 cell line) and SRD-15 (an Insig-1 and Insig-2-deficient CHO-7 cell line) were generous gifts from Russell Debose-Boyd at UT Southwestern Medical Center, USA. All cells were grown in a monolayer at 37 °C with 5% CO2. Huh7 cells were maintained in medium A supplemented with 10% FBS. CHO-7 and SRD-15 cells were maintained in medium B supplemented with 5% FBS. SRD-13A cells were maintained in medium B with 5% FBS, 5 μg ml^−1 cholesterol, 1 mM sodium mevalonate, 10 μM sodium oleate. No cell lines used in this study were found in the database of commonly misidentified cell lines that is maintained by ICLAC and NCBI Biosample. The cell lines have not been authenticated recently. No test for mycoplasma contamination was performed.
Cells were harvested and homogenized in the RIPA buffer (50 mM Tris-HCl, pH 8.0, 150 mM NaCl, 2 mM MgCl2, 1.5% NP-40, 0.1% SDS, and 0.5% sodium deoxycholate) supplemented with protease cocktail inhibitor, 10 μM MG-132, 10 μg ml^−1 leupeptin and 1 mM phenylmethylsulfonyl fluoride. The protein concentrations of lysates were determined using BCA method (Beyotime). Samples were mixed with the membrane protein solubilization buffer (62.5 mM Tris-HCl, pH 6.8, 15% SDS, 8 M urea, 10% glycerol, and 100 mM DTT) plus the 4× loading buffer (150 mM Tris-HCl, pH 6.8, 12% SDS, 30% glycerol, 6% 2-mercaptoethanol, and 0.02% bromophenol blue) and incubated for 30 min at 37 °C. Proteins were resolved by SDS-PAGE and transferred to nitrocellulose membranes (GE Healthcare). Immnoblots were blocked with 5% non-fat milk in TBS containing 0.075% Tween-20 (TBST) and probed with indicated antibodies overnight at 4 °C. After washing in TBST for five times, blots were incubated with HRP-conjugated secondary antibodies for 2 h at room temperature. Immunoreactivity was developed with Clarity Western ECL chemiluminescent substrates (170–5061, Bio-Rad). Western blot images were captured by Amersham Imager 600 (GE Healthcare), and integrated optical intensities of each band were quantified by Image-Pro Plus 6 software (Media Cybernetics). Uncropped blots are shown in Supplementary Figs. 9–13.

## C=CCC(O)(CC=C)CCCC(C)C1CCC2C3C(O)C=C4C(C)(C)C(O)CCC4(C)C3CCC12C (stereo not shown) [Cmpd 81]
CHO-7, 0.01 uM, 16 h
  endogenous HMGCR protein (immunoblot), mean: 96.5896
CHO-7, 0.03 uM, 16 h
  endogenous HMGCR protein (immunoblot), mean: 105.12
CHO-7, 0.1 uM, 16 h
  endogenous HMGCR protein (immunoblot), mean: 84.2505
CHO-7, 0.3 uM, 16 h
  endogenous HMGCR protein (immunoblot), mean: 66.4121
CHO-7, 1 uM, 16 h
  endogenous HMGCR protein (immunoblot), mean: 9.931
CHO-7, 3 uM, 16 h
  endogenous HMGCR protein (immunoblot), mean: 3.826
CHO-7, 10 μM MG-132, 5 h
  HMGCR degradation induced by Cmpd 81 on addition of proteasome inhibitor MG-132: completely blocked
CHO-7, 10 uM, 16 h
  endogenous HMGCR protein (immunoblot), mean: 1.121
CHO-7, 20 uM, 16 h
  endogenous HMGCR protein (immunoblot), mean: 1.6114
CHO-7, Cmpd 81 1 μM with lovastatin 1 μM
  HMGCR protein fold change: 5.141
CHO-7, Cmpd 81 1 μM, without lovastatin
  HMGCR protein fold change: 0.3231
CHO-7, Cmpd 81 3 μM with lovastatin 1 μM
  HMGCR protein fold change: 1.706
CHO-7, Cmpd 81 3 μM, without lovastatin
  HMGCR protein fold change: 0.1204
CHO-7, Cmpd 81 10 μM with lovastatin 1 μM
  HMGCR protein fold change: 0.399
CHO-7 cells, 1 μM, 16 h
  reduction in HMGCR: more than 80%
CHO-7 cells, 16 h, read-out: EC50 to decrease endogenous HMGCR (dose–response immunoblotting)
  EC50: 390 nM
Cultured cells
  HMGCR protein induced by simvastatin, pravastatin, fluvastatin, atorvastatin and rosuvastatin: similarly reduced

## CC[C@H](C)C(=O)O[C@H]1C[C@@H](C)C=C2C=C[C@H](C)[C@H](CC[C@@H]3C[C@@H](O)CC(=O)O3)[C@H]21 [Lovastatin, lovastatin]
CHO-7, lovastatin 0.001 uM, 16 h, DMSO = 1
  HMGCR protein level, mean: 1.706
CHO-7, lovastatin 0.003 uM, 16 h, DMSO = 1
  HMGCR protein level, mean: 2.872
CHO-7, lovastatin 0.01 uM, 16 h, DMSO = 1
  HMGCR protein level, mean: 6.395
CHO-7, lovastatin 0.03 uM, 16 h, DMSO = 1
  HMGCR protein level, mean: 10.2955
CHO-7, lovastatin 0.1 uM, 16 h, DMSO = 1
  HMGCR protein level, mean: 11.6269
CHO-7, lovastatin 0.3 uM, 16 h, DMSO = 1
  HMGCR protein level, mean: 13.3691
CHO-7, lovastatin 1 μM alone
  HMGCR protein fold change: 16.2295
CHO-7, lovastatin 1 uM, 16 h, DMSO = 1
  HMGCR protein level, mean: 14.123
CHO-7, lovastatin 3 uM, 16 h, DMSO = 1
  HMGCR protein level, mean: 14.7817
CHO-7, lovastatin 10 uM, 16 h, DMSO = 1
  HMGCR protein level, mean: 14.2587
CHO-7 cells, statin 16 h, DMSO = 1
  increase of HMGCR protein (maximum increment): ~ 15 fold
